Reference: publication PMC5372988, “Bulgecin A: The Key to a Broad-Spectrum Inhibitor That Targets Lytic Transglycosylases” (Antibiotics, 2017)

Target: T1, LtgA (Neisseria meningitidis, UniProt Q9JXP1)
T1 construct: gene NMB1949; GST fusion from pGEX-4T1, GST cut by thrombin; E. coli BL21(DE3) Gold; 577 residues in model
T1 sequence (Q9JXP1 26-616): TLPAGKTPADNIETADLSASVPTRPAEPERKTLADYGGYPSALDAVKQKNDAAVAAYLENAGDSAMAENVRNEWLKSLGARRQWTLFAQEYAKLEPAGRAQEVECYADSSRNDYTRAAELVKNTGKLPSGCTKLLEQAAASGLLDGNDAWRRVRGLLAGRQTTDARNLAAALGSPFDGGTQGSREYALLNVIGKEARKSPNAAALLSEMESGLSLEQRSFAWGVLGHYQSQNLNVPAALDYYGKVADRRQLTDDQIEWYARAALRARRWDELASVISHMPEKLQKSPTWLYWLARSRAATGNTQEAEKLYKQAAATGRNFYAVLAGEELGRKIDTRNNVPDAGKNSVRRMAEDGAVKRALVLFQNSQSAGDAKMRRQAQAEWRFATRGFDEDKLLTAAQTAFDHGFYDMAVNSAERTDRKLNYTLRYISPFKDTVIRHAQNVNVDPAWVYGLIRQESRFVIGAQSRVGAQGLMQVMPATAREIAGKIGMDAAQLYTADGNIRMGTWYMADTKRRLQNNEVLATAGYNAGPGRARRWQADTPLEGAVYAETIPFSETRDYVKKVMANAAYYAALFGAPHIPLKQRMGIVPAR
Test: RP-HPLC of muropeptides released from N. meningitidis peptidoglycan
Assay type: biochemical

## CC(=O)N[C@H]1[C@H](O[C@H]2C[C@@H](C(=O)NCCS(=O)(=O)O)N[C@@H]2CO)O[C@H](CO)[C@@H](OS(=O)(=O)O)[C@@H]1O [bulgecin A]
  inhibition at 90 µM: 66 ± 9.4%
